This is an account of results in US20120053053A1, “PYRIMIDINE DERIVATIVES AND THEIR USE AS HERBICIDES” (SYNGENTA CROP PROTECTION, LLC, priority 2009, published 2012).

A word on the pest or weed control: it is how far the test organism was held down.

Holding throughout (type): in vivo
Assay [1] relates to Amaranthus retoflexus (AMARE). The experiment in a line: Post-emergence biological efficacy (percentage damage). The note with it: Amaranthus retroflexus, 312 h, dose 1,000 g/ha, evaluated after 13 days, 100=total damage, 0=no damage. A digest of the protocol: (§1)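 Post-emergence spray, 250 or 1000 g/ha, acetone/water 50:50 + 0.5% Tween 20, on 8-day-old potted plants; glasshouse 24/16 °C, 14 h light, 65% RH, watered twice daily; % damage read at 13 d.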

The test system of assay [2] is Solanum nigrum (SOLNI). The assay is described as above. The note with it: Solanum nigrum, 312 h, dose 1,000 g/ha, evaluated after 13 days, 100=total damage, 0=no damage. A digest of the protocol:
as §1

Assay [3] deals with Setaria faberi (SETFA). Described as above. The note with it: Setaria faberi, 312 h, dose 1,000 g/ha, evaluated after 13 days, 100=total damage, 0=no damage. A digest of the protocol:
as §1

Assay [4] deals with Echinochloa crus-galli (ECHCG). The description is as above. The note with it: Echinochloa crus-galli, 312 h, dose 1,000 g/ha, evaluated after 13 days, 100=total damage, 0=no damage. A digest of the protocol: as §1
In assay [5] the test system is Alopecurus myosuroides (ALOMY). The description is as above. Conditions: Alopecurus myosuroides, 312 h, dose 1,000 g/ha, evaluated after 13 days, 100=total damage, 0=no damage. A digest of the protocol:
as §1

Assay [6] relates to Ipomea hederaceae (IPOHE). Described as above. Conditions: Ipomoea hederacea, 312 h, dose 1,000 g/ha, evaluated after 13 days, 100=total damage, 0=no damage. A digest of the protocol:
as §1

The test system of assay [7] is Amaranthus retoflexus (AMARE). Description: Pre-emergence biological efficacy (percentage damage). Conditions: Amaranthus retroflexus, 312 h, dose 1,000 g/ha, evaluated after 13 days, 100=total damage, 0=no damage. The essentials: (§2)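 Visual injury on a 0–100 scale was recorded 13 days after a spray giving 250 or 1000 g/ha of compound, applied one day post-sowing.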

In assay [8] the test system is Solanum nigrum (SOLNI). The description is as above. Conditions: Solanum nigrum, 312 h, dose 1,000 g/ha, evaluated after 13 days, 100=total damage, 0=no damage. A digest of the protocol:
as §2

The test system of assay [9] is Setaria faberi (SETFA). The assay is described as above. Conditions: Setaria faberi, 312 h, dose 1,000 g/ha, evaluated after 13 days, 100=total damage, 0=no damage. The essentials: as §2
For assay [10], the system named is Echinochloa crus-galli (ECHCG). The description is as above. The note with it: Echinochloa crus-galli, 312 h, dose 1,000 g/ha, evaluated after 13 days, 100=total damage, 0=no damage. The essentials: as §2
Assay [11] deals with Alopecurus myosuroides (ALOMY). The description is as above. The note with it: Alopecurus myosuroides, 312 h, dose 1,000 g/ha, evaluated after 13 days, 100=total damage, 0=no damage. The essentials: as §2
The test system of assay [12] is Ipomea hederaceae (IPOHE). The assay is described as above. Conditions: Ipomoea hederacea, 312 h, dose 1,000 g/ha, evaluated after 13 days, 100=total damage, 0=no damage. A digest of the protocol: as §2

Regarding `COC(=O)c1nc(-c2ccc(Cl)c(OC)c2F)nc(N)c1C=C(C)C` [Compound 27-69, 4-Amino-2-(4-chloro-2-fluoro-3-methoxyphenyl)-6-methoxycarbonyl-5-(2-methylprop-1-enyl)-pyrimidine], the pest or weed control at 1000 g/ha in [1] stood at 90%; with Solanum nigrum (SOLNI) [2], 80%; with Setaria faberi (SETFA) [3], 40%; in assay [4], 10%; in assay [5] it was 40%; in assay [6] it was 40%. Also, the pest or weed control at 1000 g/ha worked out at 100% in [7]; 100% with Solanum nigrum (SOLNI) [8]; 60% with Setaria faberi (SETFA) [9]; 30% in [10]; 40% in assay [11]; 30% in assay [12].
Regarding `C=Cc1c(N)nc(-c2cc(F)c(Cl)c(F)c2)nc1C(=O)OC` [Compound 30-61, 4-Amino-2-(4-chloro-3,5-difluorophenyl)-5-ethenyl-6-methoxycarbonyl-pyrimidine], the pest or weed control at 1000 g/ha in assay [1] was 10%; in the assay with Solanum nigrum (SOLNI) [2], 80%; in the assay on Setaria faberi (SETFA) [3], 0%; in assay [4], 0%; in [5], 0%; in [6], 10%. For the same compound, the pest or weed control at 1000 g/ha in assay [7] came out at 0%; with Solanum nigrum (SOLNI) [8], 20%; in the assay on Setaria faberi (SETFA) [9], 0%; in assay [10], 0%; in [11], 0%; in assay [12] it was 0%.
For `CCc1c(N)nc(-c2ccc(C(F)(F)F)cc2)nc1C(=O)OC` [Compound 31-42, 4-amino-5-ethyl-6-methoxycarbonyl-2-(4-trifluoro-methylphenyl)-pyrimidine], the pest or weed control at 1000 g/ha in assay [1] came to 0%; in the assay on Solanum nigrum (SOLNI) [2] it was 10%; in the assay on Setaria faberi (SETFA) [3] it was 0%; in assay [4], 0%; in [5] it was 0%; in assay [6] it was 0%. The pest or weed control at 1000 g/ha (in assay [7]; with Solanum nigrum (SOLNI) [8]; in the assay with Setaria faberi (SETFA) [9]; in assay [10]; in assay [11]; in [12]) was 0% in each case.
As for `COC(=O)c1nc(-c2ccc(C(F)(F)F)cc2)nc(N)c1C(C)=O` [Compound 31-53, 4-amino-6-methoxycarbonyl-5-methylcarbonyl-2-(4-trifluoromethylphenyl)-pyrimidine], the pest or weed control at 1000 g/ha in assay [1] was 100%; with Solanum nigrum (SOLNI) [2], 100%; in the assay on Setaria faberi (SETFA) [3] it was 100%; in assay [4], 100%; in assay [5] it was 90%; in assay [6], 90%. The pest or weed control at 1000 g/ha in assay [7] is 100%; in the assay with Solanum nigrum (SOLNI) [8], 100%; with Setaria faberi (SETFA) [9], 90%; in assay [10], 90%; in assay [11] it was 80%; in assay [12], 90%.
Turning to `C=Cc1c(N)nc(-c2ccc(C(F)(F)F)cc2)nc1C(=O)OC` [Compound 31-61, 4-Amino-5-ethenyl-6-methoxycarbonyl-2-(4-trifluoromethyl-phenyl)-pyrimidine], the pest or weed control at 1000 g/ha in assay [1] was 70%; in the assay with Solanum nigrum (SOLNI) [2] it was 70%; in the assay with Setaria faberi (SETFA) [3] it was 0%; in assay [4], 0%; in assay [5], 20%; in assay [6], 10%. The pest or weed control at 1000 g/ha in assay [7] came out at 10%; in the assay with Solanum nigrum (SOLNI) [8], 0%; with Setaria faberi (SETFA) [9], 0%; in assay [10], 0%; in assay [11], 0%; in assay [12] it was 0%.
In the case of `C/C=C/c1c(N)nc(-c2ccc(C(F)(F)F)cc2)nc1C(=O)OC` [Compound 31-62, 4-amino-6-methoxycarbonyl-5-prop-1-enyl-2-(4-tri-fluoromethylphenyl)-pyrimidine], the pest or weed control at 1000 g/ha in assay [1] stood at 30%; with Solanum nigrum (SOLNI) [2] it was 50%; in the assay with Setaria faberi (SETFA) [3], 10%; in assay [4], 0%; in [5] it was 0%; in assay [6] it was 50%. Moreover, the pest or weed control at 1000 g/ha in assay [7] amounted to 20%; in the assay with Solanum nigrum (SOLNI) [8], 0%; with Setaria faberi (SETFA) [9] it was 0%; in [10], 0%; in [11], 0%; in [12], 0%.
Turning to `C=CCc1c(N)nc(-c2ccc(C(F)(F)F)cc2)nc1C(=O)OC` [Compound 31-63, 4-Amino-6-methoxycarbonyl-5-(prop-1-en-3-yl)-2-(4-trifluoromethyl-phenyl)-pyrimidine], the pest or weed control at 1000 g/ha in assay [1] was found to be 40%; in the assay on Solanum nigrum (SOLNI) [2] it was 50%; in the assay with Setaria faberi (SETFA) [3], 0%; in assay [4] it was 0%; in [5], 0%; in [6], 40%. Further, the pest or weed control at 1000 g/ha (in assay [7]; with Solanum nigrum (SOLNI) [8]; with Setaria faberi (SETFA) [9]; in assay [10]; in assay [11]; in assay [12]) was 0% throughout.
Turning to `C=C(C)c1c(N)nc(-c2ccc(C(F)(F)F)cc2)nc1C(=O)OC` [Compound 31-64, 4-Amino-6-methoxycarbonyl-5-(prop-1-en-2-yl)-2-(4-trifluoromethyl-phenyl)-pyrimidine], the pest or weed control at 1000 g/ha in assay [1] was 40%; in the assay on Solanum nigrum (SOLNI) [2], 60%; with Setaria faberi (SETFA) [3], 20%; in [4] it was 0%; in assay [5], 0%; in [6], 60%. In addition, the pest or weed control at 1000 g/ha (in assay [7]; in the assay with Solanum nigrum (SOLNI) [8]; in the assay on Setaria faberi (SETFA) [9]; in assay [10]; in assay [11]; in assay [12]) was 0% each time.
As for `C=C(OCC)c1c(N)nc(-c2ccc(C(F)(F)F)cc2)nc1C(=O)OC` [Compound 31-67, 4-amino-5-(1-ethoxyethenyl)-6-methoxycarbonyl-2-(4-trifluoromethylphenyl)-pyrimidine], the pest or weed control at 1000 g/ha in [1] came to 50%; in the assay with Solanum nigrum (SOLNI) [2] it was 80%; in the assay on Setaria faberi (SETFA) [3], 0%; in [4], 0%; in [5] it was 0%; in [6], 80%. Moreover, the pest or weed control at 1000 g/ha (in assay [7]; in the assay with Solanum nigrum (SOLNI) [8]; in the assay with Setaria faberi (SETFA) [9]; in [10]; in [11]; in [12]) was 0% in each case.
As for `CC(O)c1c(N)nc(-c2ccc(C(F)(F)F)cc2)nc1CO` (stereo not drawn) [Compound 31-372, 4-amino-5-(1-hydroxyethyl)-6-hydroxymethyl-2-(4-trifluoromethylphenyl)-pyrimidine], the pest or weed control at 1000 g/ha in assay [1] worked out at 20%; in the assay with Solanum nigrum (SOLNI) [2], 30%; in the assay with Setaria faberi (SETFA) [3], 30%; in assay [4], 10%; in assay [5], 10%; in assay [6], 30%. Moreover, the pest or weed control at 1000 g/ha (in [7]; with Solanum nigrum (SOLNI) [8]; in the assay with Setaria faberi (SETFA) [9]; in assay [10]; in assay [11]; in [12]) was 0% each time.
